Test results as given in PubChem BioAssay AID248 (DTP/NCI, 2004).
Where “and” joins values, the source holds several entries; their conditions need not be identical. Identical values can stand only once. Toxic doses and inconclusive results are not listed.

System: L1210 leukemia ip in BDF1 mice, survival T/C
Test: NCI In Vivo Anticancer Drug Screen. Data for tumor model L1210 Leukemia (intraperitoneal) in B6D2F1 (BDF1) mice
Conditions: endpoint: mean survival time, higher = longer survival
In short: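 Antitumor effect is assessed in tumor-bearing animals. Survival in the compound arm is compared with a vehicle-dosed control arm and expressed as their quotient.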

[1] = dose: 100.0 mg/kg/injection, schedule: Q01DX001 (ip), vehicle: Klucel (hydroxypropylcellulose) (HPC)
[2] = dose: 200.0 mg/kg/injection, schedule: Q01DX001 (ip), vehicle: Klucel (hydroxypropylcellulose) (HPC)
[3] = dose: 100.0 mg/kg/injection, schedule: Q04DX003 (ip), vehicle: saline
[4] = dose: 200.0 mg/kg/injection, schedule: Q04DX003 (ip), vehicle: saline
[5] = dose: 400.0 mg/kg/injection, schedule: Q04DX003 (ip), vehicle: saline
[6] = dose: 50.0 mg/kg/injection, schedule: Q01DX009 (ip), vehicle: saline
[7] = dose: 100.0 mg/kg/injection, schedule: Q04DX003 (ip), vehicle: Klucel (hydroxypropylcellulose) (HPC)
[8] = dose: 200.0 mg/kg/injection, schedule: Q04DX003 (ip), vehicle: Klucel (hydroxypropylcellulose) (HPC)
[9] = dose: 400.0 mg/kg/injection, schedule: Q04DX003 (ip), vehicle: Klucel (hydroxypropylcellulose) (HPC)
[10] = dose: 100.0 mg/kg/injection, schedule: Q04DX003 (ip), vehicle: saline with Tween-80
[11] = dose: 200.0 mg/kg/injection, schedule: Q04DX003 (ip), vehicle: saline with Tween-80
[12] = dose: 400.0 mg/kg/injection, schedule: Q04DX003 (ip), vehicle: saline with Tween-80
[13] = dose: 100.0 mg/kg/injection, schedule: Q01DX009 (ip), vehicle: saline
[14] = dose: 200.0 mg/kg/injection, schedule: Q01DX009 (ip), vehicle: saline
[15] = dose: 100.0 mg/kg/injection, schedule: Q01DX001 (ip), vehicle: saline

For COc1ccc(NC(=O)CC#N)cc1, the T/C [1] was 101 % of control and the T/C [2] was 95 % of control.
For O=S(=O)(c1ccccc1)C1CC(Cl)C1 (stereo not drawn), the T/C [3] was 109 % of control, the T/C [4] was 98 % of control and the T/C [5] was 97 % of control.
O=S(=O)(CCCc1ccccc1)CCS(=O)(=O)CCCc1ccccc1 was tested, and the T/C (dose: 50.0 mg/kg/injection, schedule: Q01DX009 (ip), vehicle: acetone) was 98 % of control, the T/C (dose: 100.0 mg/kg/injection, schedule: Q01DX009 (ip), vehicle: acetone) was 98 % of control and the T/C (dose: 200.0 mg/kg/injection, schedule: Q01DX009 (ip), vehicle: acetone) was 98 % of control.
For FCc1nc2nc(Cl)c(Cl)nc2[nH]1, the T/C (dose: 12.5 mg/kg/injection, schedule: Q01DX009 (ip), vehicle: saline) was 100 % of control, the T/C (dose: 25.0 mg/kg/injection, schedule: Q01DX009 (ip), vehicle: saline) was 96 % of control and the T/C [6] was 88 % of control. For the same molecule, the T/C [3] was 97 % of control and the T/C [4] was 97 % of control.
In the case of CCCCNC(=S)Nc1ccccc1, the T/C (dose: 75.0 mg/kg/injection, schedule: Q01DX001 (ip), vehicle: other) was 117 % of control, the T/C (dose: 150.0 mg/kg/injection, schedule: Q01DX001 (ip), vehicle: other) was 117 % of control and the T/C (dose: 300.0 mg/kg/injection, schedule: Q01DX001 (ip), vehicle: other) was 102 % of control.
With CC(C)=CCOC(N)=O the T/C [7] was 95 % of control, the T/C [8] was 104 % of control and the T/C [9] was 109 % of control.
With Cc1ccc(S(=O)(=O)N(C)c2cc(Cl)c(C(N)=O)c(Cl)c2)cc1 the T/C [1] was 93 % of control, the T/C (dose: 100.0 mg/kg/injection, schedule: Q01DX009 (ip), vehicle: saline sonified) was 97 % of control and the T/C (dose: 100.0 mg/kg/injection, schedule: Q01DX009 (ip), vehicle: saline with Tween-80) was 98 % of control. The T/C [10] was 105 % of control, the T/C [2] was 95 % of control and the T/C (dose: 200.0 mg/kg/injection, schedule: Q01DX009 (ip), vehicle: saline sonified) was 105 % of control. For the same molecule, the T/C (dose: 200.0 mg/kg/injection, schedule: Q01DX009 (ip), vehicle: saline with Tween-80) was 90 % of control, the T/C [11] was 101 % of control and the T/C (dose: 400.0 mg/kg/injection, schedule: Q01DX001 (ip), vehicle: Klucel (hydroxypropylcellulose) (HPC)) was 100 % of control. For the same molecule, the T/C (dose: 400.0 mg/kg/injection, schedule: Q01DX009 (ip), vehicle: saline sonified) was 93 % of control, the T/C (dose: 400.0 mg/kg/injection, schedule: Q01DX009 (ip), vehicle: saline with Tween-80) was 92 % of control and the T/C [12] was 92 % of control.
With c1ccc2c(c1)CCc1ccccc1CN(CCNC1=NCCN1)C2 the T/C (dose: 6.25 mg/kg/injection, schedule: Q01DX009 (ip), vehicle: Klucel (hydroxypropylcellulose) (HPC)) was 96 % of control, the T/C (dose: 12.5 mg/kg/injection, schedule: Q01DX009 (ip), vehicle: Klucel (hydroxypropylcellulose) (HPC)) was 91 % of control and the T/C (dose: 25.0 mg/kg/injection, schedule: Q01DX009 (ip), vehicle: Klucel (hydroxypropylcellulose) (HPC)) was 91 % of control.
With CCn1c(C)[n+](CCCOS(=O)(=O)[O-])c2ccccc21 the T/C [3] was 97 % of control and the T/C [4] was 106 % of control.
For CC1(C)COC(c2ccc3ccccc3c2)OC1, the T/C [7] was 96 % of control, the T/C [8] was 101 % of control and the T/C [9] was 100 % of control.
For Nc1ccc(Nc2ccc(N)cc2)cc1, the T/C (dose: 5.0 mg/kg/injection, schedule: Q01DX001 (ip), vehicle: saline) was 101 % of control and the T/C (dose: 10.0 mg/kg/injection, schedule: Q01DX001 (ip), vehicle: saline) was 113 % of control.
With CCOC(=O)CN1C(=O)NC2(CCc3ccccc3C2)C1=O (stereo not drawn) the T/C [12] was 98 % of control.
With CNC1CCCCC1O (stereo not drawn) the T/C [6] was 97 % of control, the T/C [13] was 91 % of control and the T/C [14] was 94 % of control.
For Cc1ccc(O)cc1Cl, the T/C [13] was 104 % of control, the T/C [3] was 95 % of control and the T/C [14] was 101 % of control. For the same molecule, the T/C [4] was 104 % of control, the T/C (dose: 400.0 mg/kg/injection, schedule: Q01DX009 (ip), vehicle: saline) was 95 % of control and the T/C [5] was 96 % of control.
In the case of Nc1ncnc2c1ncn2C1OC(COC(=O)C2C3CC4CC(C3)CC2C4)C(O)C1O (stereo not drawn), the T/C [15] was 104 % of control.
CC(C)(C)C1COP(=S)(c2ccccc2)OC1 (stereo not drawn) was tested, and the T/C [7] was 96 % of control.
In the case of O=c1[nH]c2ccccc2[nH]1, the T/C (dose: 12.5 mg/kg/injection, schedule: Q04DX002 (ip), vehicle: Klucel (hydroxypropylcellulose) (HPC)) was 90 % of control, the T/C (dose: 25.0 mg/kg/injection, schedule: Q04DX002 (ip), vehicle: Klucel (hydroxypropylcellulose) (HPC)) was 87 % of control and the T/C (dose: 50.0 mg/kg/injection, schedule: Q01DX009 (ip), vehicle: Klucel (hydroxypropylcellulose) (HPC)) was 95 % of control. The T/C (dose: 50.0 mg/kg/injection, schedule: Q04DX002 (ip), vehicle: Klucel (hydroxypropylcellulose) (HPC)) was 90 % of control, the T/C (dose: 75.0 mg/kg/injection, schedule: Q01DX009 (ip), vehicle: Klucel (hydroxypropylcellulose) (HPC)) was 94 % of control and the T/C (dose: 115.0 mg/kg/injection, schedule: Q01DX009 (ip), vehicle: Klucel (hydroxypropylcellulose) (HPC)) was 97 % of control. The T/C (dose: 170.0 mg/kg/injection, schedule: Q01DX009 (ip), vehicle: Klucel (hydroxypropylcellulose) (HPC)) was 89 % of control.
c1nnc(NCNc2nncs2)s1 was tested, and the T/C (dose: 2.6 mg/kg/injection, schedule: Q01DX009 (ip), vehicle: Klucel (hydroxypropylcellulose) (HPC)) was 115 % of control, the T/C (dose: 6.0 mg/kg/injection, schedule: Q01DX009 (ip), vehicle: Klucel (hydroxypropylcellulose) (HPC)) was 124 % of control and the T/C (dose: 7.5 mg/kg/injection, schedule: Q01DX009 (ip), vehicle: saline) was 122 % of control. For the same molecule, the T/C (dose: 12.0 mg/kg/injection, schedule: Q04DX003 (ip), vehicle: Klucel (hydroxypropylcellulose) (HPC)) was 121 % of control, the T/C (dose: 15.0 mg/kg/injection, schedule: Q01DX009 (ip), vehicle: saline) was 120 % of control and the T/C (dose: 18.0 mg/kg/injection, schedule: Q04DX003 (ip), vehicle: Klucel (hydroxypropylcellulose) (HPC)) was 122 % of control. The T/C (dose: 19.0 mg/kg/injection, schedule: Q01DX009 (ip), vehicle: saline) was 154 % of control, the T/C (dose: 20.0 mg/kg/injection, schedule: Q01DX009 (ip), vehicle: Klucel (hydroxypropylcellulose) (HPC)) was 109 % of control and the T/C (dose: 30.0 mg/kg/injection, schedule: Q01DX009 (ip), vehicle: Klucel (hydroxypropylcellulose) (HPC)) was 95 % of control. The T/C (dose: 30.0 mg/kg/injection, schedule: Q01DX009 (ip), vehicle: saline) was 166 % of control, the T/C (dose: 45.0 mg/kg/injection, schedule: Q01DX009 (ip), vehicle: Klucel (hydroxypropylcellulose) (HPC)) was 87 % of control and the T/C (dose: 45.0 mg/kg/injection, schedule: Q01DX009 (ip), vehicle: saline) was 114 % of control. The T/C (dose: 50.0 mg/kg/injection, schedule: Q01DX001 (ip), vehicle: saline) was 110 % of control, the T/C (dose: 50.0 mg/kg/injection, schedule: Q04DX003 (ip), vehicle: saline) was 111 % of control and the T/C (dose: 60.0 mg/kg/injection, schedule: Q01DX009 (ip), vehicle: saline) was 115 % of control. For the same molecule, the T/C [15] was 117 % of control, the T/C [4] was 167 % of control and 168 % of control and the T/C (dose: 300.0 mg/kg/injection, schedule: Q04DX003 (ip), vehicle: Klucel (hydroxypropylcellulose) (HPC)) was 106 % of control. For the same molecule, the T/C (dose: 300.0 mg/kg/injection, schedule: Q04DX003 (ip), vehicle: saline) was 113 % of control.
CN1CCN(C2=Cc3ccccc3C(O)C(Cc3ccccc3)=N2)CC1 (stereo not drawn) was tested, and the T/C [10] was 100 % of control, the T/C [11] was 96 % of control and the T/C [12] was 96 % of control.
For COC(=N)c1nn(C2OC(CO)C(O)C2O)c2ncnc(N)c12 (stereo not drawn), the T/C (dose: 100.0 mg/kg/injection, schedule: Q01DX005 (ip), vehicle: saline) was 115 % of control, the T/C (dose: 200.0 mg/kg/injection, schedule: Q01DX005 (ip), vehicle: saline) was 153 % of control and the T/C (dose: 400.0 mg/kg/injection, schedule: Q01DX005 (ip), vehicle: saline) was 164 % of control.
For O=[N+]([O-])c1ccc(N/N=C2/CCSc3ccccc32)cc1, the T/C (dose: 100.0 mg/kg/injection, schedule: Q04DX003 (ip), vehicle: acetone) was 100 % of control, the T/C (dose: 200.0 mg/kg/injection, schedule: Q04DX003 (ip), vehicle: acetone) was 99 % of control and the T/C (dose: 400.0 mg/kg/injection, schedule: Q04DX003 (ip), vehicle: acetone) was 88 % of control.
In the case of CC(C)OC(CCC#N)c1ccccc1 (stereo not drawn), the T/C (dose: 100.0 mg/kg/injection, schedule: Q01DX009 (ip), vehicle: Klucel (hydroxypropylcellulose) (HPC)) was 101 % of control, the T/C [7] was 102 % of control and the T/C (dose: 200.0 mg/kg/injection, schedule: Q01DX009 (ip), vehicle: Klucel (hydroxypropylcellulose) (HPC)) was 98 % of control. The T/C [8] was 96 % of control and the T/C [9] was 102 % of control.
